The text below walks through data of patent US8519006B2, “Use of sphingosine-1 phosphate (S1P) receptor agonists for the treatment of brain degenerative diseases” (Novartis AG, priority 2003, dated 2013).

In general, LD50 refers to the dose at which mortality reaches 50%.

The subject of data set [1] is human monocytes. The data set can be described thus: Monocyte chemotaxis toward Aβ (48-blindwell microchemotaxis chamber). Type of data set: cell-based.
Data set [2] relates to subjects exhibiting mild to moderate Alzheimer dementia. The data set can be described thus: Clinical trial, EEG and psychometric tests. It counts as in vivo, human. To be noted: ca. 0.25 to ca. 10 mg/p.o. once or divided 2 or 3×; tests at 60, 120 and 180 minutes.
Data set [3] can be described thus: Acute toxicity (LD50). The following applies: rat, in vivo, po.
Data set [4] in a line: Acute toxicity (LD50). To be noted: monkey, in vivo, po.
In data set [5] the test system is human monocytes. In words: Monocyte chemotaxis toward Aβ precursor protein (Aβ-PP). It counts as cell-based.
The mark [6] stands for this setting: monocytes pre-incubated with enzyme blocker, washed, chemotaxis toward Aβ (1 pmol/l), GFX 500 nmol/l, IBMX 10 ng/ml, Tyrphostin-23 10 ng/ml, WTN 10 nmol/l, CTX 1 nmol/l, PTX 1 nmol/l, Medium 1.786 (0.078).
Where [7] appears, read: monocytes pre-incubated with enzyme blocker, washed, chemotaxis toward Aβ-PP (1 pmol/l), GFX 500 nmol/l, IBMX 10 ng/ml, Tyrphostin-23 10 ng/ml, WTN 10 nmol/l, CTX 1 nmol/l, PTX 1 nmol/l, Medium 1.639 (0.076).

Like-named read-outs stand apart in the source and are kept apart here. Some results are limits rather than exact numbers.

Consider `CCCCCCCCc1ccc(CCC(N)(CO)CO)cc1.Cl` [Compound A, 2-amino-2-[2-(4-octylphenyl)ethyl]propane-1,3-diol], for which the “Chemotaxis Mean (+/−SEM)” value in the data set with human monocytes [1] (chemotaxis index, monocytes incubated 20 min with 2 ng/ml, washed, chemotaxis toward Aβ [1 pmol/L], Medium 1.825 (0.14)) is given as 1.077 (0.18). Moreover, the “condition as evidenced by EEG results and psychometric tests compared with placebo” value in data set [2] is recorded as “improved condition”. Besides, the LD50 in “Acute toxicity (LD50) [3]” and in “Acute toxicity (LD50) [4]” was greater than 10 mg/kg throughout.
On to `CN(C)CCCn1cc(C2=C(c3c[nH]c4ccccc34)C(=O)NC2=O)c2ccccc21` [GFX], for which the “Chemotaxis Index Aβ Mean (+/−SEM)” value with human monocytes [1] (setting [6]) was 1.143 (0.08). For the same compound, the “Chemotaxis Index Aβ-PP Mean (+/−SEM)” value in the data set with human monocytes [5] (setting [7]) is 1.098 (0.10).
The like results for `CC(C)Cn1c(=O)n(C)c(=O)c2[nH]cnc21` [IBMX] were, in that order, 1.234 (0.06) and 1.208 (0.09).
In the case of `N#CC(C#N)=Cc1ccc(O)c(O)c1` [Tyrphostin-23], in the data set on human monocytes [1], the “Chemotaxis Index Aβ Mean (+/−SEM)” value is 1.435 (0.04). In the data set on human monocytes [5], the “Chemotaxis Index Aβ-PP Mean (+/−SEM)” value is listed as 1.398 (0.07).
Turning to `COC[C@H]1OC(=O)c2coc3c2[C@@]1(C)C1=C(C3=O)[C@@H]2CCC(=O)[C@@]2(C)C[C@H]1OC(C)=O` [WTN], the “Chemotaxis Index Aβ Mean (+/−SEM)” value with human monocytes [1] (setting [6]) is 1.023 (0.05). For the same compound, the “Chemotaxis Index Aβ-PP Mean (+/−SEM)” value with human monocytes [5] (setting [7]) is listed as 1.115 (0.08).
